Experimental data from the NIST ThermoML archive (doi:10.1021/je0342419).

How the values were obtained:
[1] = 300 kPa, Fluid (supercritical or subcritical phases)
[2] = xn = mol fraction of the nth substance listed; conditions: 300 kPa, Fluid (supercritical or subcritical phases)

O=C=O [carbon dioxide]
[1]
Conditions	viscosity [mPa·s]
500 K	0.0236
800 K	0.0356
1100 K	0.0452

O=C=O [carbon dioxide] + [HH]
[2], x2 = 0
Conditions	viscosity [mPa·s]
500 K	0.0236
800 K	0.0356
1100 K	0.0452

[HH] [hydrogen]
[1]
Conditions	viscosity [mPa·s]
500 K	0.0129
800 K	0.0179
1100 K	0.0226

[HH] [hydrogen] + O=C=O
viscosity [mPa·s], [2]
Conditions	x1 = 0.15	x1 = 0.3	x1 = 0.5	x1 = 0.7	x1 = 0.85	x1 = 1
500 K	0.0238	0.0241	0.0236	0.0215	0.0192	0.0129
800 K	0.0351	0.0346	0.0336	0.0303	0.0269	0.0179
1100 K	0.0438	0.0431	0.0422	0.0403	0.0346	0.0226
